The text below walks through data of patent US10392394B2, “Antimicrobial compounds and methods” (Board of Supervisors of Louisiana State University and …, priority 2013, dated 2019).

For data set [1], the system named is Human gingival fibroblasts. The experiment in a line: Biocompatibility (cytotoxicity) test, Calcein-AM cell survival. It counts as cell-based. Particulars: 24 h exposure, FIG. 1. As for the experimental part:
Synthesized monomers (Formulas 4-6, 10, and 11) and methacryloyloxyundecyldi-methylbenzylammonium bromide (Formula 1) were tested for biocompatibility (cytotoxicity). Human gingival fibroblasts were obtained from extracted molars from patients with healthy gingival following informed consent as prescribed in an approved IRB protocol. Gingival fibroblasts were maintained in MEM containing 10% fetal calf serum (FCS) and 200 units/mL penicillin and 200 μg/mL streptomycin. Cells were grown in 48-well plates for 24 h prior to exposure to the monomers. The growth media containing 0.1% dimethylsulfoxide (DMSO) were supplemented with 10^−4 M, 10^−5 M, 10^−6 M and 10^−7 M concentrations of five newly synthesized exemplary monomers (Formulas 4-6, 10, and 11) and added to the cells for 24 h. MEM served as a control for cytotoxicity. Cell survival was visualized using a fluorescent esterase substrate (Calcein-AM) and a inverted fluorescent microscope. Cell survival was quantified using a fluorescent multi-well plate reader.

The subject of data set [2] is Streptococcus mutans, Lactobacillus casei, Staphylococcus aureus and Pseudomonas aeruginosa. Kind of data set: Antimicrobial activity, automated growth curve analysis. It counts as cell-based. Conditions: 10^−4 M-10^−7 M in BMGS medium, triplicate, FIG. 2. As for the experimental part:
Evaluation of antimicrobial activities of Formula 1 and synthesized monomers (Formulas 4-6, 10, and 11) was also performed. Streptococcus mutans was grown in brain heart infusion (BHI, Difco Laboratories, Detroit, Mich.), Lactobacillus casei was grown in MRS medium (Difco), Staphylococcus aureus and Pseudomonas aeruginosa were grown in Trypticase Soy Broth (TSB; Difco). They all were grown under static conditions in an 37° C. aerobic chamber with (for S. mutans only) or without 5% CO2. For antimicrobial assay, these bacteria were cultivated using a modified semi-defined biofilm medium (BM) with glucose (18 mM) and sucrose (2 mM) (BMGS) as the supplemental carbohydrate sources. Antimicrobial efficacy was measured using an automated growth curve analysis system. Overnight cultures were transferred to fresh medium and allowed to grow to mid-exponential phase, when they were properly diluted in BMGS and allowed to grow in the automated growth curve analysis system with and without inclusion of Formula 1 and synthesized monomers (Formulas 4-6, 10, and 11). All antimicrobial monomers were dissolved in DMSO at 10^−2 M concentration and serial dilutions were made to achieve the desired concentrations (10^−4 M-10^−7 M). All experiments were run in triplicate.

Setting [3] is: concentrations of 10^−5 M and below.

Turning to `C=C(C)C(=O)OCC(COC(=O)C(=C)C)OC(=O)CCCCCCCCC[N+]12CCN(CC1)CC2.[Br-]` [Formula 4, 2-(1,3-dimethacryloyloxy)propyl 10-(1-(1-azonia-4-azabicylco[2.2.2]octyl))decanoate bromide], the “cytotoxicity (cell survival)” value in data set [1] (10^−4 M concentration) was “little cytotoxicity”.

`C=C(C)C(=O)OCC(COC(=O)C(=C)C)OC(=O)CCCCCCCCCCCCCCC[N+]12CCN(CC1)CC2.[Br-]` [Formula 5, 2-(1,3-dimethacryloyloxy)propyl 16-(1-(1-azonia-4-azabicylco[2.2.2]octyl))hexadecanoate bromide]: the “cytotoxicity (cell survival)” value in data set [1] (10^−4 M concentration) is “significant cell death”; in data set [1] (setting [3]) it was “good biocompatibility”. In data set [2], the antibacterial activity result was “Highest levels of antibacterial activity”.

Turning to `C=C(C)C(=O)OCC(COC(=O)C(=C)C)OC(=O)CCCCCCCCCCCCCCC[N+](C)(C)Cc1ccccc1` [Formula 6, 2-(1,3-dimethacryloyloxy)propyl 16-N,N-dimethylbenzylammoniumhexadecanoate bromide], the “cytotoxicity (cell survival)” value is recorded as “significant cell death” in data set [1] (10^−4 M concentration) and “good biocompatibility” in data set [1] (setting [3]). For the same compound, the antibacterial activity result in data set [2] is recorded as “Highest levels of antibacterial activity”.

Turning to `C=C(C)C(=O)OCCCCCCCCCCCCCCCC[N+]12CCN(CC1)CC2.[Br-]` [Formula 11, 16-(1-azonia-4-azabicylco[2.2.2]octyl)hexadecylmethacrylate bromide], in data set [1] (10^−4 M concentration), the “cytotoxicity (cell survival)” value is “little cytotoxicity”.
